{"source": "patent US5196446A", "about": "(priority 1991, dated 1993)", "key": {"[1]": {"target": "T1, EGF receptor tyrosine kinase (Homo sapiens, UniProt P00533)", "T1 construct": "WGA-purified EGF receptor from A431 cells; endogenous in cells; host or cells: A431 cells (solubilized, receptor enriched on WGA-agarose)", "assay_type": "biochemical", "settings": "for IC50: read-out: IC50 (concentration of inhibitor required to inhibit 50% of polyGAT phosphorylation)"}, "EGF receptor [2]": {"target": "T2, EGF receptor (Homo sapiens, UniProt P00533)", "settings": "read-out: Km for ATP in autophosphorylation; 15° C.; 10-s assay", "description": "ATP and EGF Dependence of Autophosphorylation\nWith use of the 10-s assay protocol, the EGF concentration dependence of EGFRK autophosphorylation is determined."}, "EGF receptor [3]": {"target": "T2, EGF receptor", "assay": "Inhibition of EGFR autophosphorylation (A431 cell lysate, EGF stimulation)", "assay_type": "biochemical", "set-up": "EGF receptor in membranes of A431 cells; host or cells: membranes of A431 cells", "description": "Inhibition of EGFR Autophosphorylation\nA431 cells were grown to confluence on human fibronectin coated tissue culture dishes. After washing 2 times with ice-cold PBS, cells were lysed by the addition of 500 μl/dish of lysis buffer (50 mmol Hepes, pH 7.5, 150 mmol NaCl, 1.5 mmol Mg Cl2, 1 mmol EGTA, 10% glycerol, 1% triton X-100, 1 mmol PMSF, 1 mg/ml aprotinin, I mg/ml leupeptin) and incubating 5 minutes at 4° C. After EGF stimulation ([…] 10 minutes at 37° C.) immunoprecipitation was performed with anti EGF-R (Ab 108) and the autophosphorylation reaction (50 μl aliquots, 3 μCi [γ-^32 P]ATP) sample was carried out in the presence of 2 or 10 μM of compound, for 2 minutes at 4° C. The reaction was stopped by adding hot electrophoresis sample buffer. SDS-PAGE analysis (7.5% els) was followed by autoradiography and the reaction was quantitated by densitometry scanning of the x-ray films. In order to test the compounds for selective inhibition, the procedure is repeated using PDGF stimulation in place of EGF stimulation."}, "[4]": {"tested_on": "cyclic adenosine 3',5'-monophosphate (cAMP)-dependent protein kinase", "settings": "in words; compared with EGF receptor autophosphorylation; cited from earlier work"}, "EGF receptor [5]": {"target": "T2, EGF receptor", "set-up": "EGF receptor in membranes of A431 cells; host or cells: membranes of A431 cells", "settings": "cited from earlier work"}, "other protein kinases": {"tested_on": "other protein kinases", "settings": "PTK inhibitors which compete with ATP; cited from earlier work"}, "[6]": {"settings": "as a result of inhibiting other protein kinases; cited from earlier work"}}, "data": [{"compound": "Nc1ncnc2c1ncn2[C@@H]1O[C@H](COP(=O)(O)OP(=O)(O)OP(=O)(O)O)[C@@H](O)[C@H]1O", "note": "[ATP, adenosine triphosphate]", "values": [{"measurement": "Km", "setting": "[1]; read-out: Km for ATP in the poly(GAT) assay", "result": 2.9, "unit": "µM"}, {"measurement": "Km", "setting": "EGF receptor [2]", "result": 7.2, "unit": "µM"}]}, {"compound": "N#CC(C#N)=Cc1c[nH]cn1", "note": "[Example 3, 4-Imidazolidene malononitrile]", "values": [{"measurement": "IC50", "setting": "[1]", "result": 2600, "unit": "µM"}]}, {"compound": "N#CC(C#N)=Cc1ccc2[nH]ccc2c1", "note": "[Example 5, 5-Indolidene malononitrile]", "values": [{"measurement": "IC50", "setting": "[1]", "result": 2200, "unit": "µM"}]}, {"compound": "N#CC(=Cc1ccc2c(c1)OCO2)c1ccccn1", "note": "[Example 8, 2-(2-pyridyl)-3-[3,4-(methylenedioxy)phenyl]-2-propenenitrile]", "values": [{"measurement": "IC50", "setting": "EGF receptor [3]", "result": 1, "unit": "µM"}]}, {"compound": "O=CN/C=C/c1cc(O)ccc1O", "note": "[erbstatin]", "values": [{"measurement": "concentration required to inhibit cAMP-dependent protein kinase", "setting": "[4]", "result": "much higher concentrations"}, {"measurement": "concentration required to inhibit EGF receptor autophosphorylation", "setting": "EGF receptor [5]; in words, compared with cAMP-dependent protein kinase", "result": "Low concentrations"}, {"measurement": "inhibition of EGF receptor autophosphorylation", "setting": "EGF receptor [5]; membranes of A431 cells", "result": "inhibits the autophosphorylation of the EGF receptor"}]}, {"compound": "O=c1c(-c2ccc(O)cc2)coc2cc(O)cc(O)c12", "note": "[genistein]", "values": [{"measurement": "inhibition of other protein kinases", "setting": "other protein kinases", "result": "inhibit other protein kinases"}, {"measurement": "cytotoxicity", "setting": "[6]", "result": "highly cytotoxic"}]}, {"compound": "O=c1c(O)c(-c2ccc(O)c(O)c2)oc2cc(O)cc(O)c12", "note": "[quercetin]", "values": [{"measurement": "inhibition of other protein kinases", "setting": "other protein kinases", "result": "inhibit other protein kinases"}, {"measurement": "cytotoxicity", "setting": "[6]", "result": "highly cytotoxic"}]}]}
